The test concerns the target (+)-MK801 binding site of the ionotropic NMDA receptor. Also noted: species or system rat.

Where a name gives a salt, the structure may show the parent alone.

In turn, `Cc1ccccc1C1=CCN(C2(c3ccccc3)CCCCC2)CC1` [Example 7, 4-(2-methylphenyl)-1-(1-phenylcyclohexyl)-1,2,3,6-tetrahydropyridine hydrochloride] registered a Ki of 5.3 µM.

With `Clc1ccccc1C1=CCN(C2(c3ccccc3)CCCCC2)CC1` [Example 11, 4-(2-chlorophenyl)-1-(1-phenylcyclohexyl)-1,2,3,6-tetrahydropyridine hydrochloride], the Ki came to 2.8 µM.
